Laboratory results: patent US11459298B2, “Class of dicationic compounds as well as the preparative method and the use thereof” (WEST CHINA HOSPITAL, SICHUAN UNIVERSITY, priority 2018, dated 2022)

Columns and labels:
[1] = tested on: New Zealand white rabbits; assay: Experiment on muscle relaxation in anesthetized rabbits (TOF neuromuscular transmission monitor); format: in vivo, rabbit; details: for ED (2 x ED95): Oryctolagus cuniculus, intravenous injection, propofol anesthesia; for ED (2 x ED95) / Onset time / Recovery time: N = 8; for Onset time: TOF=0, after i.v. 2× ED95 equivalent dose; for Recovery time: TOF=90%, after i.v. 2× ED95 equivalent dose; for change characteristics of TOF 1-4 after administration: depolarizing vs non-depolarizing pattern
Method: Male New Zealand white rabbits weighing 2-3.5 kg were used as experimental animals for muscle relaxation test. The specific procedures were: propofol emulsion was intravenously administrated to induce and maintain general anesthesia (induction dose: 10 mg/kg; maintenance dose: […]). Tracheal intubation was carried out and respiratory support was used.

[2] = tested on: human body; details: after single administration, clinical use; cited from earlier work

Row | Molecule | ED (2 x ED95) [1] | Onset time [1] | Recovery time [1] | change characteristics of TOF 1-4 after administration [1] | duration of muscle relaxation / action time [2]
1 | COc1ccc(C[C@@H]2c3cc(OC)c(OC)cc3CC[N@+]2(C)CCC(=O)OCCCCCOC(=O)CC[N@@+]2(C)CCc3cc(OC)c(OC)cc3[C@H]2Cc2ccc(OC)c(OC)c2)cc1OC [Cisatracurium, reference compound] | 0.08 mg/kg | >90 s | 17.6 ± 5.2 min | successively and gradually decreased, rather than in equal proportion | 
2 | C[N+](CCCCOC(=O)OCOC(=O)C[N+]1(Cc2ccc([N+](=O)[O-])cc2)CCCCC1)(Cc1ccccc1)Cc1ccc([N+](=O)[O-])cc1 (centres unmarked) [Compound 1] | 0.8 mg/kg | <40 s | 5.2 ± 1.1 min |  | 
3 | C[N+](CCOC(=O)OCOC(=O)C[N+]1(Cc2ccc([N+](=O)[O-])cc2)CCCCC1)(Cc1ccccc1)Cc1ccc([N+](=O)[O-])cc1 (centres unmarked) [Compound 2] | 0.9 mg/kg | <40 s | 6.4 ± 1.4 min |  | 
4 | C[N+](CCOC(=O)OCOC(=O)CCC[N+]1(Cc2ccc([N+](=O)[O-])cc2)CCCCC1)(Cc1ccc(F)cc1)Cc1ccc([N+](=O)[O-])cc1 (centres unmarked) [Compound 3] | 1.8 mg/kg | <40 s | 4.8 ± 0.5 min |  | 
5 | C[N+](CCOC(=O)OCOC(=O)CCC[N+]1(Cc2ccc([N+](=O)[O-])cc2)CCCCC1)(Cc1ccc(Cl)cc1)Cc1ccc([N+](=O)[O-])cc1 (centres unmarked) [Compound 4] | 1.4 mg/kg | <40 s | 5.4 ± 0.9 min |  | 
6 | C[N+](CCOC(=O)OCOC(=O)CCC[N+]1(Cc2ccc([N+](=O)[O-])cc2)CCCCC1)(Cc1ccc([N+](=O)[O-])cc1)Cc1ccc(Cl)cc1Cl (centres unmarked) [Compound 5] | 1.6 mg/kg | <40 s | 5.2 ± 1.2 min |  | 
7 | C[N+](CCOC(=O)OCOC(=O)CCC[N+]1(Cc2ccc([N+](=O)[O-])cc2)CCCCC1)(Cc1ccc([N+](=O)[O-])cc1)Cc1c(F)cccc1F (centres unmarked) [Compound 6] | 0.8 mg/kg | <40 s | 4.1 ± 1.1 min |  | 
8 | C[N+](CCOC(=O)OCOC(=O)CCC[N+]1(Cc2ccc([N+](=O)[O-])cc2)CCCCC1)(Cc1ccc([N+](=O)[O-])cc1)Cc1ccc([N+](=O)[O-])cc1 [Compound 7] | 1.6 mg/kg | <40 s | 5.2 ± 1.1 min |  | 
9 | C[N+](CCOC(=O)OCOC(=O)CCC[N+]1(Cc2ccc([N+](=O)[O-])cc2)CCCCC1)(Cc1ccc(C#N)cc1)Cc1ccc([N+](=O)[O-])cc1 (centres unmarked) [Compound 8] | 1.7 mg/kg | <40 s | 7.2 ± 1.4 min |  | 
10 | C[N+](CCOC(=O)OCOC(=O)CCC[N+]1(Cc2ccc([N+](=O)[O-])cc2)CCCCC1)(Cc1ccc([N+](=O)[O-])cc1)Cc1ccc(C(F)(F)F)cc1 (centres unmarked) [Compound 9] | 1.6 mg/kg | <40 s | 5.2 ± 1.2 min |  | 
11 | C[N+](CCOC(=O)OCOC(=O)CCC[N+]1(Cc2ccc(C(F)(F)F)cc2)CCCCC1)(Cc1ccccc1)Cc1ccc([N+](=O)[O-])cc1 (centres unmarked) [Compound 10] | 2.4 mg/kg | <40 s | 6.2 ± 0.9 min |  | 
12 | C[N+](CCOC(=O)OCOC(=O)CCC[N+]1(Cc2ccc([N+](=O)[O-])cc2)CCCCC1)(Cc1ccc(-c2ccccc2)cc1)Cc1ccc([N+](=O)[O-])cc1 (centres unmarked) [Compound 11] | 1.5 mg/kg | <40 s | 7.7 ± 1.6 min |  | 
13 | COc1ccc(C[N+](C)(CCOC(=O)OCOC(=O)CCC[N+]2(Cc3ccc(OC)c(OC)c3)CCCCC2)Cc2ccc(OC)c(OC)c2)cc1OC [Compound 12] | 4.4 mg/kg | <40 s | 6.3 ± 2.1 min |  | 
14 | Cc1ccc(C[N+](C)(CCCCOC(=O)OCOC(=O)C[N+]2(Cc3ccc(C)c(C)c3)CCCCC2)Cc2ccc(C)c(C)c2)cc1C [Compound 13] | 6.2 mg/kg | <40 s | 6.9 ± 1.7 min |  | 
15 | C[N+](CCOC(=O)OCOC(=O)COCC[N+]1(Cc2ccc([N+](=O)[O-])cc2)CCCCC1)(Cc1ccccc1)Cc1ccc([N+](=O)[O-])cc1 (centres unmarked) [Compound 19] | 0.8 mg/kg | <40 s | 4.1 ± 0.8 min |  | 
16 | CC1CC[N+](CCCC(=O)OCOC(=O)OCC[N+](C)(Cc2ccccc2)Cc2ccc([N+](=O)[O-])cc2)(Cc2ccc([N+](=O)[O-])cc2)CC1 (centres unmarked) [Compound 35] | 1 mg/kg | <40 s | 7.2 ± 2.3 min |  | 
17 | C[N+](CCOC(=O)OCOC(=O)CCC[N+]1(Cc2ccc([N+](=O)[O-])cc2)CCCCC1)(Cc1ccc([N+](=O)[O-])cc1)Cc1ccsc1 (centres unmarked) [Compound 38] | 1.2 mg/kg | <40 s | 4.4 ± 1.1 min |  | 
18 | C[N+](CCOC(=O)OCOC(=O)CCC[N+]1(Cc2ccc([N+](=O)[O-])cc2)CCC(F)(F)CC1)(Cc1ccccc1)Cc1ccc([N+](=O)[O-])cc1 (centres unmarked) [Compound 45] | 0.8 mg/kg | <40 s | 5.1 ± 1.4 min |  | 
19 | C[N+](CCOC(=O)OCOC(=O)CCC[N+]1(Cc2ccc([N+](=O)[O-])cc2)CCCC1)(Cc1ccc(F)cc1)Cc1ccc([N+](=O)[O-])cc1 (centres unmarked) [Compound 47] | 1.4 mg/kg | <40 s | 3.1 ± 0.7 min |  | 
20 | C[N+](C)(C)CCOC(=O)CCC(=O)OCC[N+](C)(C)C [Succinylcholine, reference compound] | 1.8 mg/kg | <40 s | 13.3 ± 3.5 min | decreased in the same proportion until disappearance | 10 min
21 | CC(=O)O[C@H]1C[C@@H]2CC[C@@H]3[C@H](CC[C@@]4(C)[C@H]3C[C@H]([N+]3(C)CCCCC3)[C@@H]4OC(C)=O)[C@@]2(C)C[C@@H]1[N+]1(C)CCCCC1 [pancuronium] |  |  |  |  | > 60 min
22 | micuronium |  |  |  |  | 15 to 20 min
